# Measured values taken from patent publication US20240306682A1, “Process for providing a combination of fermented seaweed and/or algae and plant material selected from the family Fabaceae” (FERMENTATIONEXPERTS A/S, priority 2020, published 2024).
# System: salmons
# Test: Fish feeding experiment, fillet colour by SalmoFan color measurement scale
# Assay type: in vivo
# Conditions: salmon fillets, supplement in basic fish feed (50 mg astaxanthin/kg or 15% (w/w) fermented composition), fed for 8 weeks
# Experimental: The colour intensity of a salmonoid fillets according to the present invention may be determined by the SalmoFan™ color measurement scale. The SalmoFan™ color measurement scale has been developed by DSM and may be determined physically, using visual inspection applying a colour scale, or by digitally determination, using a colour sensor to determine the colour intensity. Fish feeding experiment using the following feed are performed: • (1) A basic fish feed comprising 50 mg chemically produced astaxanthin/kg basic fish feed; • (2) A basic fish feed comprising 15% (w/w) of a fermented composition comprising 99% fermented rapeseed meal and 1% fermented seaweed; and • (3) A basic fish feed comprising 15% (w/w) of a fermented composition as provided in Example 1, comprising 93% fermented soymeal, 6% fermented rapeseed meal and 1% fermented seaweed. 3 ponds with each 10 salmons of about 3 kg per salmon was fed with the above-mentioned basic fish feed, including supplement (1), (2) or (3), in the stated concentrations, for a period of 8 weeks. After the […] weeks the salmons were harvested, gutted and filleted and the colour of the fillets was determined by the SalmoFan™ color measurement scale.
smiles,measurement,value
"CC1=C(/C=C/C(C)=C/C=C/C(C)=C/C=C/C=C(C)/C=C/C=C(C)/C=C/C2=C(C)C(=O)[C@@H](O)CC2(C)C)C(C)(C)C[C@H](O)C1=O [supplement 1, astaxanthin]",Colour intensity,23-23
